Results reported in ChEMBL document CHEMBL2203226, “PPAR-γ agonistic metabolites from the ascidian Herdmania momus” (J Nat Prod, 2012).
Converted amounts (≈) assume the structure as drawn. The source made the active and inactive calls. The calls are words filed in the database; no cut-off is given here.

Experiments:
[1] = molecular target: T1, Peroxisome proliferator-activated receptor gamma (Homo sapiens) (UniProt P37231); test: Agonist activity at full length human PPARgamma transfected in rat Ac2F cells cotransfected with PPRE-TK-luc assessed as induction of transactivation activity at 10 ug/ml by luciferase reporter gene assay relative to control; format: functional, cell-based
T1 sequence (whole entry): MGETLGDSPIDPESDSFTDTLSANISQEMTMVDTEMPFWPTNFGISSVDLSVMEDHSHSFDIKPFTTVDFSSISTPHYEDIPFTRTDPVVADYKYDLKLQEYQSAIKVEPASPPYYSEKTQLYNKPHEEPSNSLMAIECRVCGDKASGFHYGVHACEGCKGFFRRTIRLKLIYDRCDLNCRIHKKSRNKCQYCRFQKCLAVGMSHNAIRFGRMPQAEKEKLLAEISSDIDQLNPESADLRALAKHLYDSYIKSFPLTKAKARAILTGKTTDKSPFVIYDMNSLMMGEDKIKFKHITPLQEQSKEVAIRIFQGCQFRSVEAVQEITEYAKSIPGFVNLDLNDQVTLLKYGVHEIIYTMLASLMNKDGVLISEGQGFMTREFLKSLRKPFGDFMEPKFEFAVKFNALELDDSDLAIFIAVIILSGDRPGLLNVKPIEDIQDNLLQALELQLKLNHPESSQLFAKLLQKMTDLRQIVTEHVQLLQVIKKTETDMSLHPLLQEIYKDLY

[2] = molecular target: T1, Peroxisome proliferator-activated receptor gamma (Homo sapiens); test: Agonist activity at full length human PPARgamma transfected in rat Ac2F cells cotransfected with PPRE-TK-luc assessed as induction of transactivation activity at 1 ug/ml by luciferase reporter gene assay relative to control; format: functional, cell-based
[3] = Antioxidant activity assessed as radical scavenging activity by NBT reduction assay; format: functional
[4] = system: Radical scavenging activity; test: Antioxidant activity assessed as DPPH radical scavenging activity; format: functional

SMILES	Activity [1]	Activity [2]	IC50 [3] [µg/mL]	IC50 [4] [µg/mL]
N[C@H](CCCCNC(=O)C(=O)c1c[nH]c2cc(O)ccc12)C(=O)O	Active	Active		
O=C(N[C@H](Cc1c[nH]cn1)C(=O)O)C(=O)c1c[nH]c2cc(O)ccc12	Active	Active		
N[C@@H](Cc1ccc(OC(=O)c2ccc(O)cc2)cc1)C(=O)O			1.78 (≈ 5.91 µM)	2.31 (≈ 7.67 µM)
N=C(N)NCCC[C@@H](NC(=O)C(=O)c1c[nH]c2cc(O)ccc12)C(=O)O	Active	Active		
